Our source for the IC50 values is BindingDB's records for doi:10.1016/j.ejmech.2023.115180 (Damanhour University, 2023).

As a reminder, the IC50 is the midpoint of a concentration-inhibition curve. Low readings indicate higher potency, high ones lower potency.

The nature of this assay: Inhibition of LOX (unknown origin) using arachidonic/linoleic acid as substrate preincubated for 5 mins followed by substrate addition measured after 10 mins by absorbance based assay.

With `Nc1c(C(=O)N/N=C/c2ccccc2)cnn1-c1ccc(S(N)(=O)=O)cc1`, the half-maximal inhibitory concentration (IC50) was determined as 2400 nM.
On to `Nc1c(C(=O)N/N=C/c2cccs2)cnn1-c1ccc(S(N)(=O)=O)cc1`, for which the 50% inhibitory concentration (IC50) turned out to be 2500 nM.
